The values below come from PubChem BioAssay (NCI).

Among the test systems are 786-0 renal; CAKI-1 renal; HCT-116 colon; IGROV1 ovarian; MDA-MB-231 breast; MDA-N; MOLT-4 leukemia; NCI-H460 lung; OVCAR-4 ovarian; OVCAR-5 ovarian; OVCAR-8 ovarian; PC-3 prostate; SK-OV-3 ovarian; SN12C renal; UACC-62 melanoma.
What all share (assay): inhibition of tumour cell growth, NCI panel, 48 h

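Assay format: 96-well plates, 48-hour exposure. TGI: total growth inhibition.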

On to `Cc1ccc(OCC2OC(n3cnc4c(Cl)nc(Nc5cc(Cl)cc(Cl)c5)nc43)CC2Oc2ccc(C)cc2)cc1` (stereo not given), for which the TGI in the assay with 786-0 renal, in the assay on CAKI-1 renal, in the assay with HCT-116 colon, with IGROV1 ovarian, in the assay with MDA-MB-231 breast and in the assay with MDA-N was more than 100 µM throughout. For the same compound, the TGI with MOLT-4 leukemia is more than 100 µM; in the assay on NCI-H460 lung, more than 100 µM; in the assay on OVCAR-4 ovarian it was 59.2 µM; in the assay on OVCAR-5 ovarian it was more than 100 µM; with OVCAR-8 ovarian it was more than 100 µM; in the assay on PC-3 prostate it was more than 100 µM. Besides, the TGI with SK-OV-3 ovarian, in the assay on SN12C renal and in the assay with UACC-62 melanoma was more than 100 µM in each case.

With `COc1ccccc1C1c2cc3c(cc2OC2(OC)COC(=O)C12)OCO3` (stereo not given), the TGI is 72.1 µM in the assay with 786-0 renal; more than 100 µM in the assay with CAKI-1 renal; more than 80.9 µM in the assay on HCT-116 colon; more than 100 µM with IGROV1 ovarian; more than 100 µM with MDA-MB-231 breast; 5.51 µM in the assay on MDA-N. In addition, the TGI is more than 46.2 µM in the assay with MOLT-4 leukemia; more than 100 µM in the assay on NCI-H460 lung; more than 95.9 µM with OVCAR-4 ovarian; more than 100 µM in the assay with OVCAR-5 ovarian; more than 74.6 µM in the assay with OVCAR-8 ovarian; more than 92.7 µM with PC-3 prostate. The TGI in the assay with SK-OV-3 ovarian is 70.1 µM; with SN12C renal it was more than 100 µM; with UACC-62 melanoma it was 60.1 µM.

As for `CCOc1cnc(C(O)(c2ccccc2)c2ccccc2)o1`, the TGI in the assay with 786-0 renal, in the assay with CAKI-1 renal, with HCT-116 colon, with IGROV1 ovarian, in the assay with MDA-MB-231 breast and in the assay with MDA-N was more than 100 µM each time. In addition, the TGI in the assay on MOLT-4 leukemia, with NCI-H460 lung, with OVCAR-4 ovarian, with OVCAR-5 ovarian, in the assay on OVCAR-8 ovarian and with PC-3 prostate was more than 100 µM throughout. Also, the TGI with SK-OV-3 ovarian, in the assay on SN12C renal and in the assay with UACC-62 melanoma was more than 100 µM each time.

As for `Oc1c(N2CCCCC2)cc(-c2cc(N3CCCCC3)c(O)c3ccccc23)c2ccccc12`, the TGI in the assay with 786-0 renal is 45 µM; in the assay on CAKI-1 renal, more than 100 µM; in the assay on HCT-116 colon, 40.7 µM; in the assay with IGROV1 ovarian, more than 100 µM; in the assay with MDA-MB-231 breast it was more than 100 µM; in the assay with MDA-N, 33.5 µM. The TGI in the assay on MOLT-4 leukemia is 79.8 µM; in the assay with NCI-H460 lung, more than 100 µM; in the assay with OVCAR-4 ovarian, 44.9 µM; in the assay with OVCAR-5 ovarian it was more than 100 µM; with OVCAR-8 ovarian, more than 100 µM; in the assay on PC-3 prostate it was more than 100 µM. Moreover, the TGI with SK-OV-3 ovarian was more than 100 µM; in the assay on SN12C renal, more than 100 µM; in the assay on UACC-62 melanoma, 51.6 µM.

As for `CC(=O)c1ccc(N=NN2CCCC2)cc1`, the TGI in the assay with 786-0 renal, in the assay with CAKI-1 renal, with HCT-116 colon, in the assay on IGROV1 ovarian, with MDA-MB-231 breast and in the assay on MDA-N was more than 100 µM each time. Also, the TGI in the assay on MOLT-4 leukemia, in the assay with NCI-H460 lung, in the assay with OVCAR-4 ovarian, in the assay with OVCAR-5 ovarian, in the assay with OVCAR-8 ovarian and in the assay with PC-3 prostate was more than 100 µM throughout. For the same compound, the TGI with SK-OV-3 ovarian, in the assay on SN12C renal and with UACC-62 melanoma was more than 100 µM each time.

Regarding `O=S(=O)(/N=C(\NO)Nc1ccc(Cl)cc1)c1cc(C(F)(F)F)cc(C(F)(F)F)c1`, the TGI in the assay with 786-0 renal is 33.4 µM; with CAKI-1 renal it was 32.2 µM; in the assay with HCT-116 colon, 31.2 µM; with IGROV1 ovarian, 31.6 µM; in the assay on MDA-MB-231 breast, 37.2 µM; in the assay on MDA-N, 36.1 µM. For the same compound, the TGI in the assay on MOLT-4 leukemia was found to be 70.2 µM; in the assay on NCI-H460 lung it was 73.6 µM; with OVCAR-4 ovarian, 31.6 µM; with OVCAR-5 ovarian it was 30.1 µM; in the assay with OVCAR-8 ovarian, 34.5 µM; with PC-3 prostate it was 31.5 µM. The values for the TGI in the assay with SK-OV-3 ovarian, in the assay with SN12C renal and in the assay on UACC-62 melanoma were 35.2 µM, 32.1 µM and 30.7 µM, respectively.

For `COC(=O)c1cc(S(=O)(=O)NC2=NCC(C)NN2)c(S)cc1Cl` (stereo not given), the TGI in the assay on 786-0 renal, in the assay on CAKI-1 renal, with HCT-116 colon, in the assay with IGROV1 ovarian, in the assay on MDA-MB-231 breast and in the assay with MDA-N was more than 100 µM in each case. Besides, the TGI in the assay with MOLT-4 leukemia, with NCI-H460 lung, with OVCAR-4 ovarian, with OVCAR-5 ovarian, in the assay with OVCAR-8 ovarian and with PC-3 prostate was more than 100 µM in each case. For the same compound, the TGI in the assay on SK-OV-3 ovarian, in the assay with SN12C renal and in the assay on UACC-62 melanoma was more than 100 µM in each case.

Regarding `S=C1Cc2c(-c3ccccc3)cc(-c3cccc(Cl)c3)nc2-c2ccccc2N1`, the TGI is 2.21 µM in the assay with 786-0 renal; 9.23 µM with CAKI-1 renal; 6.53 µM in the assay with HCT-116 colon; 4.56 µM in the assay with IGROV1 ovarian; 5.66 µM with MDA-MB-231 breast; 26.5 µM in the assay with MDA-N. Also, the TGI was more than 90.2 µM in the assay with MOLT-4 leukemia; 7.11 µM with NCI-H460 lung; 1.21 µM in the assay with OVCAR-4 ovarian; more than 72.7 µM in the assay with OVCAR-5 ovarian; 4.39 µM with OVCAR-8 ovarian; more than 96.1 µM in the assay with PC-3 prostate. Moreover, the TGI in the assay with SK-OV-3 ovarian came to 17.4 µM; in the assay on SN12C renal it was 16.7 µM; with UACC-62 melanoma it was 5.36 µM.

As for `Cc1c(C)c2c(c(N)c1C#N)C(=O)N(Cc1ccc(S(N)(=O)=O)cc1)C2=O`, the TGI in the assay on 786-0 renal is more than 56.5 µM; with CAKI-1 renal, more than 100 µM; with HCT-116 colon, more than 92.5 µM; in the assay on IGROV1 ovarian it was more than 59.7 µM; in the assay on MDA-MB-231 breast, 73.4 µM; in the assay with MDA-N, more than 100 µM. Further, the TGI is more than 100 µM with MOLT-4 leukemia; more than 100 µM with NCI-H460 lung; more than 100 µM in the assay with OVCAR-4 ovarian; more than 87.9 µM in the assay with OVCAR-5 ovarian; more than 35.7 µM with OVCAR-8 ovarian; more than 100 µM in the assay with PC-3 prostate. Moreover, the TGI in the assay with SK-OV-3 ovarian, in the assay on SN12C renal and with UACC-62 melanoma was more than 100 µM in each case.

With `Cc1c(C)c(S(=O)(=O)N(CCCCN)OCCCN)c(C)c2c1OC(C)(C)CC2`, the TGI was 31.9 µM with 786-0 renal; more than 100 µM in the assay on CAKI-1 renal; 35.8 µM in the assay on HCT-116 colon; 20.2 µM in the assay with IGROV1 ovarian; 99.4 µM in the assay with MDA-MB-231 breast; more than 100 µM with MDA-N. The TGI with MOLT-4 leukemia was 75.6 µM; in the assay on NCI-H460 lung it was 41.2 µM; with OVCAR-4 ovarian it was 30 µM; in the assay on OVCAR-5 ovarian, 34.7 µM; in the assay on OVCAR-8 ovarian, 42 µM; in the assay with PC-3 prostate it was 23.3 µM. For the same compound, the results for the TGI with SK-OV-3 ovarian, with SN12C renal and in the assay with UACC-62 melanoma were 33.8 µM, more than 100 µM and 72.2 µM, respectively.

In the case of `C=C1CC[C@@H](CCC2CCC3(OC2)O[C@]2(O)CC[C@@]3(C)OC2(C)C)C(C)(C)[C@H]1C/C=C1\CCOC1=O` (stereo not given in full), the TGI with 786-0 renal is 31.3 µM; in the assay with CAKI-1 renal, more than 88.1 µM; in the assay on HCT-116 colon, 22.5 µM; in the assay on IGROV1 ovarian, more than 100 µM; with MDA-MB-231 breast it was more than 80.4 µM; in the assay on MDA-N, more than 100 µM. Further, the TGI was 23.9 µM in the assay on MOLT-4 leukemia; 82.7 µM in the assay on NCI-H460 lung; more than 100 µM in the assay on OVCAR-4 ovarian; more than 100 µM with OVCAR-5 ovarian; more than 100 µM with OVCAR-8 ovarian; 93.9 µM with PC-3 prostate. Besides, the results for the TGI in the assay with SK-OV-3 ovarian, in the assay on SN12C renal and in the assay on UACC-62 melanoma were more than 100 µM, 51.1 µM and more than 100 µM, respectively.

For the compound `COC(=O)/C=C(\C(=O)OC)c1cc(C)c2cc(C(C)C)ccc(C)c1-2`, the TGI in the assay on 786-0 renal is more than 100 µM; in the assay with CAKI-1 renal it was more than 100 µM; in the assay with HCT-116 colon, more than 100 µM; in the assay on IGROV1 ovarian it was more than 100 µM; with MDA-MB-231 breast, more than 100 µM; with MDA-N it was 46.3 µM. The TGI in the assay with MOLT-4 leukemia, in the assay on NCI-H460 lung, in the assay on OVCAR-4 ovarian, in the assay with OVCAR-5 ovarian, in the assay with OVCAR-8 ovarian and in the assay with PC-3 prostate was more than 100 µM in each case. In addition, the TGI in the assay on SK-OV-3 ovarian, with SN12C renal and with UACC-62 melanoma was more than 100 µM in each case.

Take `CCOC(=O)c1c(NC(=O)c2ccccc2)c(C#N)c2n1CCCCC2`: the TGI in the assay with 786-0 renal, in the assay on CAKI-1 renal, with HCT-116 colon, in the assay with IGROV1 ovarian, with MDA-MB-231 breast and with MDA-N was more than 100 µM each time. For the same compound, the TGI in the assay on MOLT-4 leukemia, in the assay on NCI-H460 lung, in the assay with OVCAR-4 ovarian, in the assay on OVCAR-5 ovarian, in the assay with OVCAR-8 ovarian and with PC-3 prostate was more than 100 µM throughout. The TGI with SK-OV-3 ovarian, in the assay on SN12C renal and with UACC-62 melanoma was more than 100 µM each time.

Consider `CCCCCCCCCCCCCCCCCCNc1ccn(C2OC(COP(=O)(O)OCC3OC(n4ccc(N)nc4=O)C(O)C3O)C(O)C2O)c(=O)n1` (stereo not given), for which the TGI in the assay on 786-0 renal, in the assay with CAKI-1 renal, in the assay on HCT-116 colon, with IGROV1 ovarian, in the assay with MDA-MB-231 breast and with MDA-N was more than 100 µM each time. Further, the TGI in the assay with MOLT-4 leukemia is more than 70.6 µM; with NCI-H460 lung it was more than 78.8 µM; in the assay with OVCAR-4 ovarian, more than 100 µM; in the assay on OVCAR-5 ovarian, more than 100 µM; with OVCAR-8 ovarian it was more than 62.2 µM; with PC-3 prostate, more than 100 µM. Moreover, the TGI with SK-OV-3 ovarian, in the assay with SN12C renal and in the assay with UACC-62 melanoma was more than 100 µM each time.
